From PubChem BioAssay (NCI)
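Each compound was tested at five concentrations against cells in 96-well plates for 48 hours. Abbreviation: GI50, concentration required for 50% inhibition of growth. TGI: total growth inhibition.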

How the values were obtained:
Test in all cases: DTP human tumour cell line panel, 48 h
[1] = test system: 786-0 renal
[2] = test system: TK-10 renal
[3] = test system: IGROV1 ovarian
[4] = test system: EKVX NSCLC
[5] = test system: NCI-H23 lung
[6] = test system: K-562 leukemia
[7] = test system: MOLT-4 leukemia
[8] = test system: UACC-62 melanoma
[9] = test system: MDA-MB-435
[10] = test system: NCI/ADR-RES ovarian

Structure (SMILES) | TGI [1] [µM] | TGI [2] [µM] | TGI [3] [µM] | TGI [4] [µM] | TGI [5] [µM] | TGI [6] [µM] | TGI [7] [µM] | TGI [8] [µM] | GI50 [1] [µM] | GI50 [2] [µM] | GI50 [9] [µM] | TGI [9] [µM] | GI50 [3] [µM] | GI50 [6] [µM] | GI50 [10] [µM] | TGI [10] [µM] | GI50 [7] [µM] | GI50 [8] [µM] | GI50 [4] [µM] | GI50 [5] [µM]
Cc1ccc([N+]2=NC(c3ccccc3)=NN(c3ccccc3)C2)cc1 | > 100 | > 100 | > 100 | > 100 | > 100 | > 100 | > 100 |  |  |  |  |  |  |  |  |  |  |  |  | 
N#CC(C#N)C(c1ccccc1)c1ccccc1 | > 100 | > 100 | > 100 |  |  | > 100 | > 100 | > 100 |  |  |  |  |  |  |  |  |  |  |  | 
O=C(N/N=C/c1ccc(N(CCCl)CCCl)cc1)c1ccc(C(=O)N/N=C/c2ccc(N(CCCl)CCCl)cc2)cc1 | > 100 | > 100 | > 100 |  |  | > 100 | > 100 |  | 2.55 | > 100 | 29.8 | > 100 | 20.7 | 20.9 | > 100 | > 100 | 0.226 |  |  | 
CC(CC(=O)Nc1ccc(NC(=O)CC(C)N=NC(N)=O)cc1)N=NC(N)=O (centres undefined) | > 100 | > 100 | > 100 | > 100 | > 100 | > 100 | > 100 | > 100 |  |  |  |  |  |  |  |  |  |  |  | 
COC1CC(n2cc(F)c(N)nc2=O)OC1CO (centres undefined) | > 100 | > 100 |  | > 100 | > 100 | > 100 | > 100 |  |  |  |  |  |  |  |  |  |  |  |  | 
NC1=Nc2ccccc2Sc2ccccc21 | > 100 | > 100 | > 100 | > 100 | > 100 | > 100 | > 100 | > 100 |  |  |  |  |  |  |  |  |  |  |  | 
CN(C)C(=S)/N=c1\ss/c(=N\S(=O)(=O)c2ccccc2)n1C | > 100 | > 100 | > 100 | > 100 | > 100 | > 100 | > 100 | > 100 |  |  |  |  |  |  |  |  |  |  |  | 
NC(=O)c1nc(-c2ccc(Cl)c(Cl)c2)nc2ccccc12 | > 100 | > 100 | > 100 | > 100 | > 100 | > 31.6 | > 100 | > 100 |  |  |  |  |  |  |  |  |  |  |  | 
CC(=O)OC1=C(CC(C)(C)C)C(=O)c2ccccc2C1=O | > 100 | > 100 | > 100 | > 100 | 38.8 | 39.9 |  | > 100 |  |  |  | 60.8 |  |  |  | 85.3 |  |  |  | 
CCN1CCC(O)(/C=C/c2ccccc2)C(C(=O)/C=C/c2ccccc2)C1 (centres undefined) | 3.32 | 7.88 | 3.78 | 11.8 | 10.3 |  | 5.38 | 3.49 |  |  |  |  |  |  |  |  |  |  |  | 
COC(=O)C(/C(=N\O)C(=O)Nc1ccc(Br)cc1)c1nc2ccccc2[nH]c1=O (centres undefined) | 90.8 |  | 71.4 | > 100 | > 100 | 67 | 57.5 | 73.1 |  |  |  |  |  |  |  |  |  |  |  | 
COc1ccc(/C=C/C(=O)c2ccc(Nc3nc(Nc4ccc(F)cc4)nc(Nc4ccc(F)cc4)n3)cc2)cc1 | 26.9 | 42.7 |  | > 100 | 32.5 | > 100 | 21.9 | > 100 | 6.03 | 11.8 | 5.8 | 31.6 |  | 4.07 | 5.63 | 33 | 3.11 | 29.9 | 23.9 | 14.4
CC(=O)/C(=C/N1CCN(C(=O)c2ccco2)C1=S)C(=O)c1ccccc1 | 25.1 | 28.6 | 28.4 | 21.3 |  | 41.6 | > 50 | 16.9 | 11.2 | 10.6 | 10.7 | 43.9 | 10.9 | 6.66 |  |  | 15.9 | 7.33 | 7.9 | 
C#C[C@@H](CCCC)OC(=O)N[C@H](C)c1ccccc1 | > 100 | > 100 | 52.6 | > 100 |  | > 100 | > 100 | > 100 |  |  |  |  |  |  |  |  |  |  |  | 
COC(=O)C(=O)C(C#N)c1c(Cl)cccc1Cl (centres undefined) | > 100 | > 100 | > 100 | > 100 | > 100 | > 100 | > 100 | > 100 |  |  |  |  |  |  |  |  |  |  |  | 
C[C@H]1CCC2C(OC(=O)[C@@H]2CN(C)C)[C@]2(C)C(=O)C=CC12O (some centres undefined) | 11.2 | 18.4 | 42.5 |  | 13.6 | > 55 | 20.2 | 9.32 |  |  |  | 22.4 |  |  |  |  |  |  |  | 
O=[N+]([O-])c1ccc2nc(-c3ccc(Cl)cc3)[nH]c2c1 | > 100 | 72.5 | 89.5 | 40.3 | > 100 |  | > 100 | 42 |  |  |  | 46.8 |  |  |  | 57.6 |  |  |  | 
CC1=CC(=O)N2C(OC[C@@H]2c2ccccc2)O1 (some centres undefined) | > 100 | > 100 | > 100 | > 100 | > 100 | > 100 | > 100 | > 100 |  |  |  |  |  |  |  |  |  |  |  | 
Cc1nc(-n2nc(-c3ccccc3)cc2-c2ccccc2)sc1C(=O)/C=C/c1cccc([N+](=O)[O-])c1 | 25.3 | 92.3 | 92.2 | > 100 | 41.8 | 28.3 | 22.4 | 27.5 |  |  |  |  |  |  |  |  |  |  |  | 
CC1OC(=O)N2CCC=CC12 (centres undefined) | > 100 | > 100 | > 100 | > 100 | > 100 | > 100 | > 100 | > 100 |  |  |  |  |  |  |  |  |  |  |  | 
Cc1nc2sc(C(=O)Nc3ccccc3)c(N)c2cc1C(=O)c1ccccc1 | > 50 | > 50 | > 50 | > 50 | > 50 | > 50 | > 50 | > 50 | 1.81 | 3.09 |  |  | 4.11 | 1.69 | 1.9 | > 50 | 2 | 2.12 | 2.74 | 3.99
COc1cc([C@@H]2c3cc4c(cc3[C@@H](NCc3cccc(F)c3)C3COC(=O)[C@@H]32)OCO4)cc(OC)c1O (some centres undefined) | 10.2 | 40.9 | 17.5 | 38 | 7.89 | 28.9 | 5.59 | 10.3 |  |  |  |  |  |  |  |  |  |  |  | 
